{"source": "patent US10214520B2", "about": "“Substituted azaspiro(4.5)decane derivatives” (priority 2014, dated 2019)"}
{"biological_target": "human μ opiate receptor (Homo sapiens, UniProt P35372)", "sequence (P35372 whole entry)": "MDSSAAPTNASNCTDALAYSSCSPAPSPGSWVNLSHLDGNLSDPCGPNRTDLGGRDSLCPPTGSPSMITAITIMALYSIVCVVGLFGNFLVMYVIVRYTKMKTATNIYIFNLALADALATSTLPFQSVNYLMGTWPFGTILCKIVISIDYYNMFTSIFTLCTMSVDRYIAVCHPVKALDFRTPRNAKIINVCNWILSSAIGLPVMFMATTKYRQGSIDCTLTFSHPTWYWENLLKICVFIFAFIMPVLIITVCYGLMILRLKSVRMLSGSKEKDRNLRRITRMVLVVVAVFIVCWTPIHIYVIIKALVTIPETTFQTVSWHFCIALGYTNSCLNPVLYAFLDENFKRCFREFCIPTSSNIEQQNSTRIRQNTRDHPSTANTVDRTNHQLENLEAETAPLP", "experiment": "μ opiate receptor binding assay with [3H]-naloxone, membrane preparation of CHO-K1 cells (WGA-SPA beads)", "settings": "mean; read-out: Ki (μ) mean [μm]", "units": {"Ki": "nM"}}
{"molecule": "CN(C)C1(C(=O)c2ccccc2)CCC2(CCN(Cc3ccccc3)C2)CC1", "note": "(single isomer, unassigned) [Example No. 70, [3-Benzyl-8-(dimethylamino)-3-azaspiro[4.5]decan-8-yl]-phenylmethanone]", "Ki": 465}
{"molecule": "CN(C)C1(C(=O)c2cccs2)CCC2(CCN(Cc3ccccc3)C2)CC1", "note": "(single isomer, unassigned) [Example No. 71, [3-Benzyl-8-(dimethylamino)-3-azaspiro[4.5]decan-8-yl]-thiophen-2-ylmethanone]", "Ki": 127}
{"molecule": "CN(C)C1(C(=O)c2cccs2)CCC2(CCN(Cc3ccccc3)C2)CC1", "note": "(single isomer, unassigned) [Example No. 72, [3-Benzyl-8-(dimethylamino)-3-azaspiro[4.5]decan-8-yl]-thiophen-2-ylmethanone]", "Ki": 805}
{"molecule": "CN(C)C1(c2cccs2)CCC2(CCN(Cc3ccncc3)C2=O)CC1", "note": "(stereo not shown) [Example 85]", "Ki": 260}
{"molecule": "CCCCC1(N(C)C)CCC2(CC1)CC(=O)N(Cc1ccccc1)C2", "note": "(stereo not shown) [Example No. 124, 3-Benzyl-8-butyl-8-(dimethylamino)-3-azaspiro[4.5]decan-2-one]", "Ki": 2970}
{"biological_target": "human μ opiate receptor (Homo sapiens, UniProt P35372)", "experiment": "μ opiate receptor binding assay with [3H]-naloxone, membrane preparation of CHO-K1 cells (WGA-SPA beads)", "settings": "read-out: MOP Ki", "units": {"Ki": "nM"}}
{"molecule": "CN(C)[C@]1(c2cnccn2)CC[C@]2(CC1)CC(=O)N(CCCC(N)=O)C2", "note": "[SC-1010, Cis-4-(8-Dimethylamino-3-oxo-8-pyrazin-2-yl-2-azaspiro[4.5]decan-2-yl)-butyramide]", "Ki": 825}
{"molecule": "CN(C)[C@]1(c2ccccn2)CC[C@]2(CC1)CC(=O)N(CCCC(N)=O)C2", "note": "[SC-1013, Cis-4-(8-Dimethylamino-3-oxo-8-pyridin-2-yl-2-azaspiro[4.5]decan-2-yl)-butyramide]", "Ki": 2430}
{"molecule": "COC(=O)c1ccc(N2C[C@]3(CC[C@@](c4ccccc4)(N(C)C)CC3)CC2=O)cc1", "note": "[SC-1074, Cis-4-(8-Dimethylamino-3-oxo-8-phenyl-2-azaspiro[4.5]decan-2-yl)-benzoic acid methyl ester]", "Ki": 420}
{"molecule": "CN(C)[C@]1(c2ccccc2)CC[C@]2(CC1)CC(=O)N(CC(C)(C)C(=O)NCCc1cncnc1)C2", "note": "[SC-1184, Cis-3-(8-Dimethylamino-3-oxo-8-phenyl-2-azaspiro[4.5]decan-2-yl)-2,2-dimethyl-N-(2-pyrimidin-5-yl-ethyl)-propionamide]", "Ki": 320}
{"system": "not given", "experiment": "not given", "settings": "not given", "units": {"melting point": "°C"}}
{"molecule": "Cc1ccc(C2(N(C)C)CCC3(CC2)CC(=O)N(C(=O)OC(C)(C)C)C3)s1", "note": "(stereo not shown)", "melting point": "165 to 167"}
